According to the NIST ThermoML archive (doi:10.1016/j.fluid.2005.06.010):

Assay: xn = mol fraction of the nth substance listed
Conditions: Fluid (supercritical or subcritical phases), Vibrating tube method

c1ccc2ccccc2c1 [naphthalene] + O=C=O
Conditions | mass density [kg/m3]
313.11 K, 8747 kPa, x1 = 0.0049 | 531.42
313.11 K, 8855 kPa, x1 = 0.0049 | 556.55
313.11 K, 8983 kPa, x1 = 0.0093 | 627.46
313.11 K, 9034 kPa, x1 = 0.0093 | 633.13
313.11 K, 9048 kPa, x1 = 0.0049 | 590.85
313.11 K, 9499 kPa, x1 = 0.0049 | 639
313.11 K, 9997 kPa, x1 = 0.0049 | 670.97
313.11 K, 10053 kPa, x1 = 0.0093 | 697.27
313.11 K, 11012 kPa, x1 = 0.0049 | 712.47
313.11 K, 11036 kPa, x1 = 0.0093 | 731.61
313.11 K, 11998 kPa, x1 = 0.0093 | 755.87
313.11 K, 12044 kPa, x1 = 0.0049 | 741.27
313.11 K, 12486 kPa, x1 = 0.0173 | 783.64
313.11 K, 12995 kPa, x1 = 0.0049 | 761.49
313.11 K, 13003 kPa, x1 = 0.0093 | 775.73
313.11 K, 13034 kPa, x1 = 0.0173 | 790.35
313.11 K, 14017 kPa, x1 = 0.0049 | 779.61
313.11 K, 14028 kPa, x1 = 0.0093 | 792.52
313.11 K, 14045 kPa, x1 = 0.0173 | 805.22
313.11 K, 14979 kPa, x1 = 0.0049 | 794.2
313.11 K, 14995 kPa, x1 = 0.0093 | 806.12
313.11 K, 15031 kPa, x1 = 0.0173 | 818.06
313.11 K, 16007 kPa, x1 = 0.0093 | 818.64
313.11 K, 16029 kPa, x1 = 0.0049 | 808.12
313.11 K, 16046 kPa, x1 = 0.0173 | 829.54
313.11 K, 16999 kPa, x1 = 0.0049 | 819.57
313.11 K, 17003 kPa, x1 = 0.0093 | 829.62
313.11 K, 17015 kPa, x1 = 0.0173 | 839.94
313.11 K, 18017 kPa, x1 = 0.0173 | 849.35
313.11 K, 18019 kPa, x1 = 0.0093 | 839.78
313.11 K, 18053 kPa, x1 = 0.0049 | 830.86
313.11 K, 19023 kPa, x1 = 0.0049 | 840.37
313.11 K, 19029 kPa, x1 = 0.0093 | 849.05
313.11 K, 19030 kPa, x1 = 0.0173 | 858.05
313.11 K, 19995 kPa, x1 = 0.0093 | 857.27
313.11 K, 20008 kPa, x1 = 0.0049 | 849.27
313.11 K, 20013 kPa, x1 = 0.0173 | 865.93
313.11 K, 20987 kPa, x1 = 0.0049 | 857.52
313.11 K, 20997 kPa, x1 = 0.0093 | 865.26
313.11 K, 21031 kPa, x1 = 0.0173 | 873.48
313.11 K, 21996 kPa, x1 = 0.0049 | 865.5
313.11 K, 22000 kPa, x1 = 0.0093 | 872.7
313.11 K, 22008 kPa, x1 = 0.0173 | 880.38
313.11 K, 22977 kPa, x1 = 0.0049 | 872.82
313.11 K, 22989 kPa, x1 = 0.0173 | 886.86
313.11 K, 22998 kPa, x1 = 0.0093 | 879.67
313.11 K, 24021 kPa, x1 = 0.0093 | 886.44
313.11 K, 24036 kPa, x1 = 0.0173 | 893.38
313.11 K, 24043 kPa, x1 = 0.0049 | 880.36
313.11 K, 24684 kPa, x1 = 0.0173 | 897.25
313.11 K, 24941 kPa, x1 = 0.0093 | 892.28
313.13 K, 10564 kPa, x1 = 0.0144 | 726.54
313.13 K, 10994 kPa, x1 = 0.0144 | 737.45
313.13 K, 12022 kPa, x1 = 0.0144 | 761.26
313.13 K, 13026 kPa, x1 = 0.0144 | 779.83
313.13 K, 13996 kPa, x1 = 0.0144 | 794.9
313.13 K, 15027 kPa, x1 = 0.0144 | 808.74
313.13 K, 16009 kPa, x1 = 0.0144 | 820.49
313.13 K, 16978 kPa, x1 = 0.0144 | 831.02
313.13 K, 17970 kPa, x1 = 0.0144 | 840.48
313.13 K, 19038 kPa, x1 = 0.0144 | 850.11
313.13 K, 20010 kPa, x1 = 0.0144 | 858.26
313.13 K, 21047 kPa, x1 = 0.0144 | 866.4
313.13 K, 22028 kPa, x1 = 0.0144 | 873.6
313.13 K, 23018 kPa, x1 = 0.0144 | 880.48
313.13 K, 24032 kPa, x1 = 0.0144 | 887.14
313.13 K, 25059 kPa, x1 = 0.0144 | 893.55
318.03 K, 13470 kPa, x1 = 0.0198 | 763.8
318.03 K, 13587 kPa, x1 = 0.0198 | 765.92
318.03 K, 13765 kPa, x1 = 0.0198 | 769.11
318.03 K, 13870 kPa, x1 = 0.0198 | 770.92
318.03 K, 13982 kPa, x1 = 0.0198 | 772.89
318.03 K, 14098 kPa, x1 = 0.0198 | 774.83
318.03 K, 14247 kPa, x1 = 0.0198 | 777.23
318.03 K, 14369 kPa, x1 = 0.0198 | 779.18
318.03 K, 14487 kPa, x1 = 0.0198 | 781.08
318.03 K, 14571 kPa, x1 = 0.0198 | 782.37
318.03 K, 14668 kPa, x1 = 0.0198 | 783.91
318.03 K, 14765 kPa, x1 = 0.0198 | 785.29
318.03 K, 14877 kPa, x1 = 0.0198 | 787
318.03 K, 14970 kPa, x1 = 0.0198 | 788.42
318.03 K, 15080 kPa, x1 = 0.0198 | 789.97
318.03 K, 15304 kPa, x1 = 0.0198 | 793.1
318.03 K, 15487 kPa, x1 = 0.0198 | 795.62
